Measurements reported in US20020168329A1, “Skin composition” (Unilever Home & Personal Care USA, Division of Conopco, Inc., priority 2001, published 2002).

Test system: Volunteers with oily skin type
Assay: Oil (sebum) secretion on the skin measured with Sebumeter SM 810 PC after one week of twice-daily cream use
Format: in vivo, human
Conditions: after 2 hours; conclusion from Table 1
Method: Method of Testing Oil Secretion:
The above mentioned formulations (Examples 1 to 4) were tested for their efficacy in reducing the oil secretion on the skin using a sebumeter by the following protocol.
Volunteers with oily skin type were recruited. The initial sebum was measured with Sebumeter SM 810 PC on the cheeks, and the selection was made such that they had approximately similar sebum profile. The panellists were asked to use 0.5 g of the assigned cream on their face twice a day, for one week. The sebum profile was measured on the 8th day. The panellists washed their face and the sebum secretion on the skin surface after 2 hours was measured using the Sebumeter SM 810 PC on the cheeks.
Sebumeter is a device for measuring sebum content on skin surface. A piece of plastic film (wound in the form of a cassette) is kept on the skin for 30 sec. By this means the […] measuring area of the plastic film becomes transparent due to absorbed sebum. […] Sebumeter SM 810 PC immediately indicates sebum content between 50 & 300 μgm/cm^2 % sebum reduction is calculated.
The protocol to measure the % reduction in sebum secretion is as per the procedure described above. The samples of creams described in Examples 4, 5 and 6 were tested for their efficacy in reducing the sebum secretion and the data are presented in Table 3.

Row | SMILES | effect in reducing oil secretion on the skin (in words)
1 | CCCCCCCCCCCCCOC(=O)c1ccccc1O [tridecyl salicylate] | significant effect in reducing oil secretion on the skin
2 | NC(=O)c1cccnc1 [niacinamide] | significant effect in reducing oil secretion on the skin
